The results in this text go back to patent US8426437B2, “Pyrroloquinoline derivatives and their use as protein kinases inhibitors” (Pierre Fabre Medicament, priority 2005, dated 2013).

In assay [1] the target is T1, TrkA (Homo sapiens, UniProt P04629).
T1 construct: purchased Upstate 14-571
The assay is described as follows: Inhibition of kinase TrkA (Kinase-Glo). The format is biochemical. The conditions noted are these: TrkA 4 μg/ml, 30 μM ATP, two hours at 30° C. In a few lines: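 TrkA (4 μg/ml) was incubated with 1 mg/ml poly-EY and 30 μM ATP in MOPS pH 7 buffer with Mg acetate, DTT and vanadate, compounds at 10 nM–30 μM final, for 2 h at 30 °C. Remaining ATP was quantified by Kinase-Glo luminescence.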
(In Kinase-Glo more light means more ATP remaining.)

Assay [2] deals with T2, TrkB (h) (Homo sapiens, UniProt Q16620).
T2 construct: purchased Upstate
T2 sequence (Q16620 32-822): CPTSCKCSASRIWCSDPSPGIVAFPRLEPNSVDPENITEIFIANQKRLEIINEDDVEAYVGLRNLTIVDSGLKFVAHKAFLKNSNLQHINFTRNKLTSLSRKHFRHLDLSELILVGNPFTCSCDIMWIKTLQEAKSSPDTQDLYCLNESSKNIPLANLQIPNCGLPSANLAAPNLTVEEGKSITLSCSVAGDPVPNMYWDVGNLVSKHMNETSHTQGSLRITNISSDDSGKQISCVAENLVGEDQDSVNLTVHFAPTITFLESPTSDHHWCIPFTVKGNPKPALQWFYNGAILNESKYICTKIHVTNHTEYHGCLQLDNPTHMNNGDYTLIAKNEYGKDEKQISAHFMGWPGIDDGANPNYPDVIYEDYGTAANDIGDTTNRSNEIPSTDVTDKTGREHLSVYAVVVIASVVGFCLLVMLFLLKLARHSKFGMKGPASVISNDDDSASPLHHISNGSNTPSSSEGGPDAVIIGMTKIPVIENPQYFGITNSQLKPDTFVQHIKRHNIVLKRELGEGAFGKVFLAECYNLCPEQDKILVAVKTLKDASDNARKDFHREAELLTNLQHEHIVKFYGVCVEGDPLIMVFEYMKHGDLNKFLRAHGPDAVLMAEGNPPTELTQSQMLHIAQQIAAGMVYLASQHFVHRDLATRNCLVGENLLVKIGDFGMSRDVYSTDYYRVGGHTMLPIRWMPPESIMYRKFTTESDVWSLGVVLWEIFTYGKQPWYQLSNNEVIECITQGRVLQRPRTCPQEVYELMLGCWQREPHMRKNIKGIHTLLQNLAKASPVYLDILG
Description: Upstate kinase panel: TrkB. The format is biochemical. The settings on record: compound 10 μM, 10 μM ATP, read-out: % inhibition at 10 μMol. The method, then:
(§1) These kinases are produced by Upstate and screened according to the respective protocols indicated by the supplier (http://www.upstate.com/features/kp_protocols.asp). Examples 1, 12, 166 and 238 were tested at a concentration of 20 μM, 10 μM, 1 μM and 1 μM respectively in the presence of 10 μM of ATP for examples 1 and 12 and at the concentrations of ATP shown in parentheses for examples 166 and 238. The results shown in Table VII correspond to percentage inhibition of the kinase tested in the presence of the compound, relative to a control effected without the compound.

Assay [3] addresses T3, TrkB (Homo sapiens, UniProt Q16620).
T3 construct: purchased Upstate 14-507
Description: Inhibition of kinase TrkB (Kinase-Glo). The conditions noted are these: TrkB 4 μg/ml, 40 μM ATP, two hours at 30° C. It is filed as biochemical. The method in brief:
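TrkB at 4 μg/ml with 2.5 mg/ml poly-EY and 40 μM ATP in MOPS/NaOH pH 7 buffer with MgAc, EDTA, DTT, vanadate and glycerophosphate; compounds at final 10 nM–30 μM. After 2 h at 30°C, remaining ATP measured by Kinase-Glo luminescence.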

Assay [4] deals with ALK (Homo sapiens, UniProt Q9UM73). Description: Inhibition of kinase ALK (PLCγ1-GST substrate, anti-phosphotyrosine ELISA). The format is biochemical. The conditions noted are these: ALK 180 ng/ml, 250 μM ATP, 30 minutes at 30° C. Here is the method: Incubation is carried out for 30 minutes at 30° C. with agitation.
Sequence of ALK (Q9UM73 19-1620, species assumed): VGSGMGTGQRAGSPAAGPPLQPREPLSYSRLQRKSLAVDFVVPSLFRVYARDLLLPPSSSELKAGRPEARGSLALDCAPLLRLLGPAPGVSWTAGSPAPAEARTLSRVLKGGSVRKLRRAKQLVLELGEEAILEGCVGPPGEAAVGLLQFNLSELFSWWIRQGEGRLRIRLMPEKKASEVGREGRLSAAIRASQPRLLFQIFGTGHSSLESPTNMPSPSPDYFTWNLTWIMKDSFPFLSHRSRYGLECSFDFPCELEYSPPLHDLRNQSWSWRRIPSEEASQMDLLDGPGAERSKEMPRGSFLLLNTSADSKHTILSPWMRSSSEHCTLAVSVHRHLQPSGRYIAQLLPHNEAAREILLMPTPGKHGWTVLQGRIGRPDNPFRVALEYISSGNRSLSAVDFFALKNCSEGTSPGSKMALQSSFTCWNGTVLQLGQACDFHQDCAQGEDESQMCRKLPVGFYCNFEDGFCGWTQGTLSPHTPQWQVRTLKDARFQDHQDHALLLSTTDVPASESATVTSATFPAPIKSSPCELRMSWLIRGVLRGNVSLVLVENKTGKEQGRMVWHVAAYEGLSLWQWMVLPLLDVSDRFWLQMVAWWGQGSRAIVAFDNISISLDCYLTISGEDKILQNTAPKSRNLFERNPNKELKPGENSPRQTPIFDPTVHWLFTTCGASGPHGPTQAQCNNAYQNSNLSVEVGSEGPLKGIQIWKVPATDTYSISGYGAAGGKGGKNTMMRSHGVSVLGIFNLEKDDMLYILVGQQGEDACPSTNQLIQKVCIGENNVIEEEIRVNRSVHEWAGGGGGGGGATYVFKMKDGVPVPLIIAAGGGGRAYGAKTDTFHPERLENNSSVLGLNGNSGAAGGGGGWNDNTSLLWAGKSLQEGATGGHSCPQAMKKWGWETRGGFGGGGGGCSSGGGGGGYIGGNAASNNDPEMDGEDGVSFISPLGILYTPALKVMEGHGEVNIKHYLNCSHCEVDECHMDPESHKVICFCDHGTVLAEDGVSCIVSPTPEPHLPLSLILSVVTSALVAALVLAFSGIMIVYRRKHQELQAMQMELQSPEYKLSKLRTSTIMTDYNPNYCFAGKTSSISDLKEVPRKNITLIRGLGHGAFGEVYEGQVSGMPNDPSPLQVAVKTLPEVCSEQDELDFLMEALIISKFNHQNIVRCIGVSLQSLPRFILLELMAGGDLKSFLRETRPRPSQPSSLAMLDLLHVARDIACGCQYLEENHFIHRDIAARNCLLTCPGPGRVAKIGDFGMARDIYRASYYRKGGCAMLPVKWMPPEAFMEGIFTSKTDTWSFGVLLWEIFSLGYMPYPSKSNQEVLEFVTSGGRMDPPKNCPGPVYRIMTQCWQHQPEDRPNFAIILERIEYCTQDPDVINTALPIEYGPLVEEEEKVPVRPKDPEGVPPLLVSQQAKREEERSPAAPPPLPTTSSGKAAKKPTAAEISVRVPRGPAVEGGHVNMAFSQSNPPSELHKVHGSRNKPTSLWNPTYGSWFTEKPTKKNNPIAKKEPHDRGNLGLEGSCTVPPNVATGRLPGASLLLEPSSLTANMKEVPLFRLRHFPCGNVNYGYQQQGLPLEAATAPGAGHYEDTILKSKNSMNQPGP
The signal is read in luminescent mode using a luminometer.
A general note: In an ELISA, binding on a coated surface is turned into a signal by an enzyme label.

For assay [5], the target named is T4, Hck (h) (Homo sapiens, UniProt P08631).
T4 construct: purchased Upstate
T4 sequence (P08631 whole entry): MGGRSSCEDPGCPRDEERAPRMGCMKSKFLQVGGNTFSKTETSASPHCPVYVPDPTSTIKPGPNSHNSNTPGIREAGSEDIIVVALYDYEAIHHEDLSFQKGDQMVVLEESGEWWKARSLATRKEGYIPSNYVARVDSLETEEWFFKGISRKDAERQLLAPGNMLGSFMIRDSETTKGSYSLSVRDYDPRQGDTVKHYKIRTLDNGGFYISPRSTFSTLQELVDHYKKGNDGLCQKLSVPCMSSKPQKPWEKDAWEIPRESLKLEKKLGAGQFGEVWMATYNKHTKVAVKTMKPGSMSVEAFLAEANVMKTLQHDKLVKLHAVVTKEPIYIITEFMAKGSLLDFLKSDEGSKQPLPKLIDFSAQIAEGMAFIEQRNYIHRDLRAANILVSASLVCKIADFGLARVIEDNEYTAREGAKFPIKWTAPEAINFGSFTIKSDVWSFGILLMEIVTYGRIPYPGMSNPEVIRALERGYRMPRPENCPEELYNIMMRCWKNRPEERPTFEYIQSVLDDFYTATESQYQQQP
Description: Upstate kinase panel: Hck. It is filed as biochemical. The conditions noted are these: compound 10 μM, 10 μM ATP, read-out: % inhibition at 10 μMol. The method, then: as §1

The target in assay [6] is T5, TrkA (h) (Homo sapiens, UniProt P04629).
T5 construct: purchased Upstate
T5 sequence (P04629 33-796): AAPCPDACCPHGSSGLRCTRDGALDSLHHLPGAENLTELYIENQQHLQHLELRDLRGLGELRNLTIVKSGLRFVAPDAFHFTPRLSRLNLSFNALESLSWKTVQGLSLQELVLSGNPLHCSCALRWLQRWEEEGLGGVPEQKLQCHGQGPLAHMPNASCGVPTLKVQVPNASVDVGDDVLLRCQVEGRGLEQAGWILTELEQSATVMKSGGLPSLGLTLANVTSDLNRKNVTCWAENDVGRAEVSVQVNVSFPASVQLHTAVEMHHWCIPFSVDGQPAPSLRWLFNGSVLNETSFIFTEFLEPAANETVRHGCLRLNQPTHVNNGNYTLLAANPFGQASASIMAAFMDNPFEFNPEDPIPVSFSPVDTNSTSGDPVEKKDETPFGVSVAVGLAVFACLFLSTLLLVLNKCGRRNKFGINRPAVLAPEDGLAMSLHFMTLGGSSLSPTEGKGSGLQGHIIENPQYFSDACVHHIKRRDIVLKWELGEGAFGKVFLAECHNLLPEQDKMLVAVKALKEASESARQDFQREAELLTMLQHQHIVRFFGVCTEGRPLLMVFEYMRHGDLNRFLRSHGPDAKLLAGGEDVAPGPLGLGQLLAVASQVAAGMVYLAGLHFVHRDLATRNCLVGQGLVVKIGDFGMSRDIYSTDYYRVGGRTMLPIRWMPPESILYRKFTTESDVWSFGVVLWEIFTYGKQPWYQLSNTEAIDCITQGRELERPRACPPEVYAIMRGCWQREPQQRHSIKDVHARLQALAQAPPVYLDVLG
The assay is described as follows: Upstate kinase panel: TrkA. The format is biochemical. The conditions noted are these: compound 20 μM, 10 μM ATP, read-out: % inhibition at 20 μMol. The method, then: as §1

The target of assay [7] is T6, PIM-1 (h) (Homo sapiens, UniProt P11309).
T6 construct: purchased Upstate
T6 sequence (P11309 whole entry): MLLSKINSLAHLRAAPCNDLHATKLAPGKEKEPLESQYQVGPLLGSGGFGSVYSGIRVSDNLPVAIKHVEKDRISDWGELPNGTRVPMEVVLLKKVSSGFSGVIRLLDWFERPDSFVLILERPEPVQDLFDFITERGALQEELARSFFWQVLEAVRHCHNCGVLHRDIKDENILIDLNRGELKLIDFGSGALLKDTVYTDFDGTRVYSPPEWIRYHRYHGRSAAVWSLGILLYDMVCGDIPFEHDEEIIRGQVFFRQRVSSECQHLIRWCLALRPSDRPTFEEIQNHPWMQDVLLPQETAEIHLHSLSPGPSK
Description: Upstate kinase panel: PIM-1. The format is biochemical. The settings on record: compound 20 μM, 10 μM ATP, read-out: % inhibition at 20 μMol. Here is the method: as §1

Assay [8] has as its system 1752L. Description: WST test, inhibition of proliferation of 1752L. The format is cell-based. The settings on record: 96 h; line 1752L, tissue of origin Pleuromesothelium; four days of incubation, WST-1. Here is the method: (§2) The inhibition of the proliferation of cell lines by certain compounds of the invention was tested. […] In the example, the lines used were derived from cancers of the uterus, central nervous system, colon, stomach, head and neck, lung, breast, pancreas, and kidney, as well as from lymphoma, myeloma, pleura, or from melanoma.
(§3) The WST test for measuring cell proliferation and viability (Roche Applied Science) is based on cleavage of a tetrazolium salt by the mitochondrial dehydrogenases in viable cells.
(§4) After four days of incubation of the compounds with the cell line, 14 μl of WST-1 reagent is added to each well and the plates are incubated for four hours at 37° in humid atmosphere at 5% CO2. The level of formazan formed is then determined by spectrophotometry at 450 nm whereas a reference is measured at 650 nm. A control with untreated cells is represented by six wells per plate and the group of treated cells is produced in triplicate for each of the concentrations measured.
(§5) The compounds are tested at five concentrations between 10 nM and 100 μM and two cytotoxic agents are used as controls: adriamycin and 5-fluorouracil.
On the technique in general: Tetrazolium assays rely on reduction of a dye to a coloured formazan, in cell work by metabolically active cells.

The test system of assay [9] is MDA-468. The assay is described as follows: WST test, inhibition of proliferation of MDA-468. The format is cell-based. The conditions noted are these: 96 h; line MDA-468, tissue of origin Breast; four days of incubation, WST-1. The method, then:
as §2, §3, §4, §5

The subject of assay [10] is A498. The assay is described as follows: WST test, inhibition of proliferation of A498. The settings on record: Homo sapiens, 96 h; line A498, tissue of origin Kidney; four days of incubation, WST-1. It is filed as cell-based. Here is the method:
as §2, §3, §4, §5

Assay [11] relates to H69. The assay is described as follows: WST test, inhibition of proliferation of H69. It is filed as cell-based. The settings on record: Homo sapiens, NCI-H69, 96 h; line H69, tissue of origin Lung (SCLC); four days of incubation, WST-1. Here is the method: as §2, §3, §4, §5
The subject of assay [12] is MDA-453. Description: WST test, inhibition of proliferation of MDA-453. The format is cell-based. The conditions noted are these: 96 h; line MDA-453, tissue of origin Breast; four days of incubation, WST-1. The method, then:
as §2, §3, §4, §5

In assay [13] the test system is MDA-231. The assay is described as follows: WST test, inhibition of proliferation of MDA-231. The format is cell-based. The settings on record: Homo sapiens, MDA-MB-231, 96 h; line MDA-231, tissue of origin Breast; four days of incubation, WST-1. The method, then: as §2, §3, §4, §5
Assay [14] relates to panel of cell lines. The assay is described as follows: Inhibition of the proliferation of a panel of cell lines (WST test). It is filed as cell-based. The settings on record: lines of Table XI, four days of incubation.
Assay [15] has as its target T7, Rsk2 (h) (Homo sapiens, UniProt P51812).
T7 construct: purchased Upstate
Description: Upstate kinase panel: Rsk2. It is filed as biochemical. The settings on record: compound 1 μM, ATP (10), read-out: % inhibition at 1 μMol. Here is the method: as §1

T1 sequence (P04629 33-796): as the sequence (P04629 33-796) above
T3 sequence (Q16620 32-822): as the sequence (Q16620 32-822) above
T7 sequence (P51812 whole entry): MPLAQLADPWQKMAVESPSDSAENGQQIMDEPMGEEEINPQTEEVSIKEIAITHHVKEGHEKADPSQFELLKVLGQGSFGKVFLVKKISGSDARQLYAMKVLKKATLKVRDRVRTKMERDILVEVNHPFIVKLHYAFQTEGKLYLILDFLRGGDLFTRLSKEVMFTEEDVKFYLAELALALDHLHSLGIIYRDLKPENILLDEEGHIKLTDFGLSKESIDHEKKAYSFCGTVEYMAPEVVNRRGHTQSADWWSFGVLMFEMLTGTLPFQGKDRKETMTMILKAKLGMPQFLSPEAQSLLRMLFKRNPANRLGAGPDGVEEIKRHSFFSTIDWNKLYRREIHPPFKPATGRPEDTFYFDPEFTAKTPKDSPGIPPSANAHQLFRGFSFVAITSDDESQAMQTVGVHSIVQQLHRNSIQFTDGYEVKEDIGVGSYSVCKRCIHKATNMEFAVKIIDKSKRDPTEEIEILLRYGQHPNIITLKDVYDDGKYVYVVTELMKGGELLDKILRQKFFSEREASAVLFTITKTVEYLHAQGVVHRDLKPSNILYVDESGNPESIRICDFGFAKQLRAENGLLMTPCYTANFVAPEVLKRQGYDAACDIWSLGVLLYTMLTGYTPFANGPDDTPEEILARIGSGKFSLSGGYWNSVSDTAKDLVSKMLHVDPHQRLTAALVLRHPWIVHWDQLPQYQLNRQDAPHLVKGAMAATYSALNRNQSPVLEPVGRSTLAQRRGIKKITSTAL

For `CCOC(=O)c1c[nH]c2c(=O)[nH]c3ccc(S(=O)(=O)Nc4ccc(F)cc4)cc3c12` [Compound 12, 8-(4-Fluorophenylsulfamoyl)-4-oxo-4,5-dihydro-3H-pyrrolo[2,3-c]quinoline-1-ethyl carboxylate], the IC50 lay in the range of 1 to 10 µM in [1], 1 to 10 µM in assay [3] and 100 to 1000 nM in [4]. Moreover, the inhibition at 10 µM in assay [2] was found to be 98%; in assay [5], 91%.
As to `CCOC(=O)c1c[nH]c2c(=O)[nH]c3ccccc3c12` [Compound 1, 4-Oxo-4,5-dihydro-3H-pyrrolo[2,3-c]quinoline-1-ethyl carboxylate], the figures for the inhibition at 20 µM in [6] and in assay [7] were 97% and 92%, respectively.
For `CCOC(=O)c1c[nH]c2c(=O)[nH]c3ccc(-c4cccc(S(C)(=O)=O)c4)cc3c12` [Compound 238, 8-(3-Methanesulfonyl-phenyl)-4-oxo-4,5-dihydro-3H-pyrrolo[2,3-c]quinoline-1-ethyl carboxylate], the IC50 in assay [8] is 35 µM; in assay [9] it was 38 µM; in assay [10], 49 µM; in assay [11] it was 500 nM; in assay [12], 7 µM; in assay [13], 41 µM. For the same molecule, in assay [14], the “inhibition of proliferation of cell lines (in words)” value is on record as “inhibition of proliferation”. In assay [15], the inhibition at 1 µM stood at 25%.

The IC50 is the point on the concentration scale where inhibition reaches its midpoint. The low end stands for higher potency, the high end for lower potency. What is called inhibition is the share of the control response that was lost under treatment.
